Consider 15 compounds from US8334287B2 (Hoffmann-La Roche Inc., priority 2009, dated 2012).

T1 sequence (P41594 21-1180 isoform P41594-2 limits assumed): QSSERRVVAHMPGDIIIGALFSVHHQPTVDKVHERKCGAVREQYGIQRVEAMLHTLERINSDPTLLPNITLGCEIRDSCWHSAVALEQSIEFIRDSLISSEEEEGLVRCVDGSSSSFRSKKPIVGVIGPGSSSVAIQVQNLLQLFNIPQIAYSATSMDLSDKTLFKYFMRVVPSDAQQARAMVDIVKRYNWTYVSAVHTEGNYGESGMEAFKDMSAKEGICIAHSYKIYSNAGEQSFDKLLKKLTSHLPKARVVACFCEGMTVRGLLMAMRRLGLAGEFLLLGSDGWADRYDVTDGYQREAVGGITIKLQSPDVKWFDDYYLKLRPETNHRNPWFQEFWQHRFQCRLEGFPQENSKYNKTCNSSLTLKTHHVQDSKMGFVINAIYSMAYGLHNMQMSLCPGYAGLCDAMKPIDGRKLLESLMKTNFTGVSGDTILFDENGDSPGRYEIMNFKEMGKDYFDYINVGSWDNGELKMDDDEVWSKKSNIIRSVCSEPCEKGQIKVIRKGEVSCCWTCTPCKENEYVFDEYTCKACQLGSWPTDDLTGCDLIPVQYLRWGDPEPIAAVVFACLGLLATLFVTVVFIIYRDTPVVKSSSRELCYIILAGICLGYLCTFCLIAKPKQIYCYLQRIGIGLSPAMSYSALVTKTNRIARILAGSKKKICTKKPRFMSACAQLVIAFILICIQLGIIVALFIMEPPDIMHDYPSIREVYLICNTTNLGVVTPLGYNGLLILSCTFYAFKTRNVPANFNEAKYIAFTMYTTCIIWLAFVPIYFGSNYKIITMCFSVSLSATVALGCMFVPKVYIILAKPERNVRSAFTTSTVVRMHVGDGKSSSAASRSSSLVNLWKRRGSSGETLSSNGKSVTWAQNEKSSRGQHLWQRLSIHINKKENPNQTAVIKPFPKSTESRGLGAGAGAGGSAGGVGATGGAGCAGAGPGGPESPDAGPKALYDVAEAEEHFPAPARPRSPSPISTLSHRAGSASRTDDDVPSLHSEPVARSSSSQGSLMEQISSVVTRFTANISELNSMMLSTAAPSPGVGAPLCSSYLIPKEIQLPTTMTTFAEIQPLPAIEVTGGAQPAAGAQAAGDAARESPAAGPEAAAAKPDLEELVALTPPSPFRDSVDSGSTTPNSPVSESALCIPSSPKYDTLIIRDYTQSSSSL

This assay has as its target T1, human mGlu5a receptor (Homo sapiens, UniProt P41594).
T1 construct: expressed in transfected cells; host or cells: EBNA cells (transient transfection); membranes prepared from them
Nature of the assay: mGlu5a receptor binding, displacement of [3H]MPEP. The conditions noted are these: competing radioligand [3H]MPEP; human mGlu5a receptor transiently transfected into EBNA cells; Ki=IC50/1+L/Kd. The method, then:
For binding experiments, cDNA encoding human mGlu5a receptor was transiently transfected into EBNA cells using a procedure described by E.-J. Schlaeger and K. Christensen (Cytotechnology 1998, 15, 1-13). For functional assays, [Ca^2+]i measurements were performed largely as described previously (Porter et al., Br J. Pharmacol 1999, 128, 13-20) on stably expressed recombinant human mGlu 5a receptors in HEK-293 cells. The cells were dye loaded using Fluo 4-AM (purchased from Molecular Probes, 2 μM final concentration) [Ca^2+]i measurements were performed using a fluorometric imaging plate reader (FLIPR, Molecular Devices Corporation, La Jolla, Calif., USA). Antagonist evaluation was performed following a 5 minute preincubation with the test compounds followed by the addition of a submaximal addition of agonist.
The inhibition (antagonists) curves were fitted with a four parameter logistic equation giving IC50, and Hill coefficient using the iterative non linear curve fitting software Xcel fit.
The Ki values of the compounds tested are given. The Ki value is defined by the following formula: Ki=IC50/1+L/Kd in which the IC50 values are those concentrations of the compounds tested in which causes 50% inhibition of the competing radioligand ([^3H]MPEP). [L] is the concentration of radioligand used in the binding experiment and the Kd value of the radioligand is empiracally determined for each batch of membranes prepared.
In general terms: Loss of bound radioactivity is the signal in a displacement assay; it reports binding, not function.
Regarding `Cc1nc(C#Cc2cccc(F)c2)c(C)n1-c1ccn(C)c(=O)c1` [Example 41, 4-[4-(3-fluoro-phenylethynyl)-2,5-dimethyl-imidazol-1-yl]-1-methyl-1H-pyridin-2-one], the affinity corresponds to a Ki of 52 nM.

`Cc1nc(C#Cc2cccc(Cl)c2)c(C)n1-c1cnn(C)c(=O)c1` [Example 42, 5-[4-(3-chloro-phenylethynyl)-2,5-dimethyl-imidazol-1-yl]-2-methyl-2H-pyridazin-3-one]: the Ki (usually a measure of affinity in units of concentration, obtained from inhibition or displacement) amounted to 38 nM.

Regarding `Cc1nc(C#Cc2ccnc(Cl)c2)c(C)n1-c1cnn(C)c(=O)c1` [Example 43, 5-[4-(2-chloro-pyridin-4-ylethynyl)-2,5-dimethyl-imidazol-1-yl]-2-methyl-2H-pyridazin-3-one], the affinity, expressed as Ki, was 306 nM.

The compound `Cc1cccc(C#Cc2nc(C)n(-c3cnn(C)c(=O)c3)c2C)c1` [Example 44, 5-(2,5-dimethyl-4-m-tolylethynyl-imidazol-1-yl)-2-methyl-2H-pyridazin-3-one] had a Ki of 71 nM.

`Cc1cccc(C#Cc2nc(C)n(-c3cc(=O)n(C)cn3)c2C)c1` [Example 45, 6-(2,5-dimethyl-4-m-tolylethynyl-imidazol-1-yl)-3-methyl-3H-pyrimidin-4-one] came in with a Ki of 74 nM.

`Cc1nc(C#Cc2ccnc(Cl)c2)c(C)n1-c1cc(=O)n(C)cn1` [Example 46, 6-[4-(2-chloro-pyridin-4-ylethynyl)-2,5-dimethyl-imidazol-1-yl]-3-methyl-3H-pyrimidin-4-one]: the Ki was 569 nM. Against the preceding compound, the Ki is about 7.7-fold higher.

In turn, `CNC(=O)Cn1ccc(-n2cc(C#Cc3cccc(C)c3)nc2C)cc1=O` [Example 48, N-methyl-2-[4-(2-methyl-4-m-tolylethynyl-imidazol-1-yl)-2-oxo-2H-pyridin-1-yl]-acetamide] returned a Ki of 788 nM. The Ki values of the last two compounds are within 1.5-fold of each other.

With `Cc1cccc(C#Cc2cn(-c3ccn(CS(C)(=O)=O)c(=O)c3)c(C)n2)c1` [Example 50], the affinity corresponds to a Ki of 559 nM.

Compound `CCn1ncc(-n2cc(C#Cc3cccc(C)c3)nc2C)cc1=O` [Example 51, 2-ethyl-5-(2-methyl-4-m-tolylethynyl-imidazol-1-yl)-2H-pyridazin-3-one] displayed a Ki of 53 nM.

As to `CCn1ncc(-n2cc(C#Cc3cccc(Cl)c3)nc2C)cc1=O` [Example 52, 5-[4-(3-Chloro-phenylethynyl)-2-methyl-imidazol-1-yl]-2-ethyl-2H-pyridazin-3-one], the Ki came out at 37 nM.

With `CCn1ncc(-n2cc(C#Cc3ccnc(Cl)c3)nc2C)cc1=O` [Example 53, 5-[4-(2-chloro-pyridin-4-ylethynyl)-2-methyl-imidazol-1-yl]-2-ethyl-2H-pyridazin-3-one], affinity was put at a Ki of 204 nM.

In the case of `COCCn1ncc(-n2cc(C#Cc3cccc(C)c3)nc2C)cc1=O` [Example 54, 2-(2-methoxy-ethyl)-5-(2-methyl-4-m-tolylethynyl-imidazol-1-yl)-2H-pyridazin-3-one], the Ki was 131 nM.

In turn, `COCCn1ncc(-n2cc(C#Cc3cccc(Cl)c3)nc2C)cc1=O` [Example 55, 5-[4-(3-Chloro-phenylethynyl)-2-methyl-imidazol-1-yl]-2-(2-methoxy-ethyl)-2H-pyridazin-3-one] displayed a Ki of 93 nM.

The compound `COCCn1ncc(-n2cc(C#Cc3ccnc(Cl)c3)nc2C)cc1=O` [Example 56] yielded a Ki of 597 nM. This Ki lies about 6.4-fold higher than the previous one.

Compound `COCCn1ncc(-n2c(C)nc(C#Cc3ccnc(Cl)c3)c2C)cc1=O` [Example 57, 5-[4-(2-Chloro-pyridin-4-ylethynyl)-2,5-dimethyl-imidazol-1-yl]-2-(2-methoxy-ethyl)-2H-pyridazin-3-one] returned a Ki of 808 nM.
